Results as given in patent US11491162B2, “Combination of quinoline-4-carboxamides and benzonaphthyridine derivatives as antimalarial drug combination” (Merck Patent GmbH, priority 2018, dated 2022).
Values joined by “and” are separate entries in the source; they are usually repeats but may differ in a detail not shown here. Equal values may be shown once. Where a name gives a salt, the structure may show the parent alone. Read-outs that look alike come from different tables or passages of the source.

Experiments:
[1] = tested on: P. falciparum Pf3D7^0087/N9; assay: In vivo SCID mouse model, oral therapeutic efficacy; set-up: species or system Plasmodium falciparum; conditions: for % control: day 7; for Activity: day 7 vs untreated control, succinate salt
Protocol: Compound efficacy was assessed against the Plasmodium falciparum strain Pf3D7^0087/N9 in vivo. Mice are infected intravenously with parasitized red blood cells on day 0. Experimental mice are generally treated at day 3, 4, 5, and 6 post-infection with an oral dose of the compound (single or 4-day oral dosing regimen) and are compared to an infected control group for reduction in parasitemia on day 7 (Maria Belen Jimenez-Díaz, Teresa Mulet, Sara Viera, Vanessa Gomez, Helen Garuti, Javier Ibanez, Angela Alvarez-Doval, Leonard D. Shultz, Antonio Martínez, Domingo Gargallo-Viola, and Inigo Angulo-Barturen, Improved Murine Model of Malaria Using Plasmodium falciparum Competent Strains and Non-Myelodepleted NOD-scid IL2Rgammanull Mice Engrafted with Human Erythrocytes, Antimicrob Agents Chemother. 2009, 53:4533).
PYRO and M1 were solubilized in a vehicle consisting of 70% Tween-80 and 30% ethanol, followed by a 10-fold dilution in H2O.

[2] = In vitro permeability in Caco-2 cells; type: in vitro ADME; conditions: human
Protocol: (§1) Caco-2 cells are maintained in DMEM in an atmosphere of 8.5% CO2. For transport experiments 0.125×10^6 cells/well of are seeded on polycarbonate filter inserts and are allowed to grow and differentiate for 14±1 days before the cell monolayers are used for experiments. Drug transport experiments are carried out using a cocktail approach in a four-dimensional setting. […] […] The assays are performed in HBSS containing 25 mM HEPES (pH 7.4) in an atmosphere of 5% CO2 at 37° C. Prior to the study, the monolayers are washed in pre-warmed HBSS. At the start of the experiments pre-warmed HBSS containing the test items is added to the donor side of the monolayer and HBSS without test items is added to the receiver side. The plates are shaken at 150 rpm at 37° C. during the experiment. After 2 h the Transwell insert containing the monolayer is carefully removed and placed in a new plate and aliquots of both the receiver and donor sides were taken and diluted with an equal volume of acetonitrile containing the internal standard. The mixture is centrifuged and supernatant analyzed by LC-MS/MS. The apparent permeability coefficients (Papp) are calculated using the formula: Papp=[Vrec/(A×C0,donor)](dCrec/dt)×10^6 with dCrev/dt being the change in concentration in the receiver compartment with time, Vrec the volume of the sample in the receiver compartment, C0, donor the concentration in the donor compartment at time 0, and A the area of the compartment with the cells.

Caco-2 cells = assay: In vitro permeability in Caco-2 cells; type: in vitro ADME; conditions: pH 7.4/7.4, Table 8
Protocol: as §1

[3] = M1 4 × 0.2 MG/KG oral, SCID mice, Table 3
[4] = M1 4 × 0.4 MG/KG oral, SCID mice, Table 3
[5] = M1 4 × 0.6 MG/KG oral, SCID mice, Table 3
[6] = M1 4 × 1.2 MG/KG oral, SCID mice, Table 3
[7] = Table 4 entry 2: M1 4 × 1.2 mg/kg, PYRO 0 mg/kg, oral

## O=C(NCCN1CCCC1)c1cc(-c2ccc(CN3CCOCC3)cc2)nc2ccc(F)cc12 [M1, 6-fluoro-2-(4-morpholin-4-ylmethyl-phenyl)-quinoline-4-carboxylic acid (2-pyrrolidin-1-yl-ethyl)amide succinate salt]
[1]; [3]
  % PARASITEMIA day 3 post infection: 0.85%
  % PARASITEMIA day 4 post infection: 1.33%
  % PARASITEMIA day 5 post infection: 3.10%
  % PARASITEMIA day 6 post infection: 3.35%
  % PARASITEMIA day 7 post infection: 6.55%
[1]; M1 4 × 0.2 MG/KG oral, SCID mice
  % control: 71.7%
[1]; M1 4 × 0.2 MG/KG oral, SCID mice, 0.2 mg/kg
  Activity: 28.3%
[1]; [4]
  % PARASITEMIA day 3 post infection: 0.70%
  % PARASITEMIA day 4 post infection: 1.38%
  % PARASITEMIA day 5 post infection: 1.18%
  % PARASITEMIA day 6 post infection: 0.75%
  % PARASITEMIA day 7 post infection: 0.55%
[1]; M1 4 × 0.4 MG/KG oral, SCID mice
  % control: 6.0%
[1]; M1 4 × 0.4 MG/KG oral, SCID mice, 0.4 mg/kg
  Activity: 94.9% and 94.0%
[1]; [5]
  % PARASITEMIA day 3 post infection: 0.63%
  % PARASITEMIA day 4 post infection: 0.70%
  % PARASITEMIA day 5 post infection: 0.60%
  % PARASITEMIA day 6 post infection: 0.13%
  % PARASITEMIA day 7 post infection: 0.03%
[1]; M1 4 × 0.6 MG/KG oral, SCID mice
  % control: 0.3%
[1]; M1 4 × 0.6 MG/KG oral, SCID mice, 0.6 mg/kg
  Activity: 99.7%
[1]; [6]
  % PARASITEMIA day 3 post infection: 0.50%
  % PARASITEMIA day 4 post infection: 0.75%
  % PARASITEMIA day 5 post infection: 0.43%
  % PARASITEMIA day 6 post infection: 0.05%
[1]; M1 4 × 1.2 MG/KG oral, SCID mice, Table 3, LLQ = <0.01% parasitemia
  % PARASITEMIA day 7 post infection: <LLQ
[1]; M1 4 × 1.2 MG/KG oral, SCID mice, LLQ = <0.01% parasitemia
  % control: <LLQ
[1]; M1 4 × 1.2 MG/KG oral, SCID mice, 1.2 mg/kg
  Activity: 100%
[1]; M1, 4-day oral dosing, SCID mice, dose as free base
  ED90: 0.37 mg/kg
[1]; [7]
  % PARASITEMIA day 3 post infection: 0.99%
  % PARASITEMIA day 4 post infection: 1.04%
  % PARASITEMIA day 5 post infection: 0.7%
  % PARASITEMIA day 6 post infection: 0.12%
  % PARASITEMIA day 7 post infection: 0.01%
[1]; Table 4 entry 2: M1 4 × 1.2 mg/kg, PYRO 0 mg/kg, oral, LLQ = <0.01% parasitemia
  % PARASITEMIA day 10 post infection: <LLQ
[2]; Caco-2, pH 7.4, PYRO 0 μM, pH 7.4/7.4, Table 8
  efflux ratio at 2 h, 1 μM: 15.4
[2]; Caco-2, pH 7.4, no P-gp inhibitor, pH 7.4/7.4, Table 7
  efflux ratio at 2 h, 1 μM: 18.2
[2]; Caco-2, pH 7.4, no P-gp inhibitor, pH 7.4/7.4, Table 7, read-out: RECOVERY apical to basolateral (A-B)
  recovery at 2 h, 1 μM: 79.8%
[2]; Caco-2, pH 7.4, no P-gp inhibitor, pH 7.4/7.4, Table 7, read-out: RECOVERY basolateral to apical (B-A)
  recovery at 2 h, 1 μM: 65.4%
[2]; Caco-2, pH 7.4, with Cyclosporine A 10 μM, with Cyclosporine A 10 μM, pH 7.4/7.4, Table 7, read-out: RECOVERY apical to basolateral (A-B)
  recovery at 2 h, 1 μM: 72.5%
[2]; Caco-2, pH 7.4, with Cyclosporine A 10 μM, with Cyclosporine A 10 μM, pH 7.4/7.4, Table 7, read-out: RECOVERY basolateral to apical (B-A)
  recovery at 2 h, 1 μM: 86.3%
[2]; Caco-2, pH 7.4, with PYRO 0.3 μM, PYRO 0.3 μM, pH 7.4/7.4, Table 8
  efflux ratio at 2 h, 1 μM: 10.1
[2]; Caco-2, pH 7.4, with PYRO 1 μM, PYRO 1 μM, pH 7.4/7.4, Table 8
  efflux ratio at 2 h, 1 μM: 14.5
[2]; Caco-2, pH 7.4, with PYRO 3 μM, PYRO 3 μM, pH 7.4/7.4, Table 8
  efflux ratio at 2 h, 1 μM: 10.2
[2]; Caco-2, pH 7.4, with PYRO 10 μM, PYRO 10 μM, pH 7.4/7.4, Table 8
  efflux ratio at 2 h, 1 μM: 11
[2]; Caco-2, pH 7.4, with PYRO 30 μM, PYRO 30 μM, pH 7.4/7.4, Table 8
  efflux ratio at 2 h, 1 μM: 5.06
[2]; Caco-2, pH 7.4, with PYRO 100 μM, PYRO 100 μM, pH 7.4/7.4, Table 8
  efflux ratio at 2 h, 1 μM: 2.42
[2]; Caco-2, with PYRO 0.3 μM, PYRO 0.3 μM, pH 7.4/7.4, Table 8
  Papp at 2 h, 1 μM: 9.74 ×10⁻⁶ cm/s
[2]; Caco-2, with PYRO 0.3 μM, PYRO 0.3 μM, pH 7.4/7.4, Table 8, read-out: PAPP (A-B)
  Papp A→B at 2 h, 1 μM: 3.07 ×10⁻⁶ cm/s
[2]; Caco-2, with PYRO 1 μM, PYRO 1 μM, pH 7.4/7.4, Table 8
  Papp at 2 h, 1 μM: 8.25 ×10⁻⁶ cm/s
[2]; Caco-2, with PYRO 1 μM, PYRO 1 μM, pH 7.4/7.4, Table 8, read-out: PAPP (A-B)
  Papp A→B at 2 h, 1 μM: 2.17 ×10⁻⁶ cm/s
[2]; Caco-2, with PYRO 1 μM, PYRO 1 μM, pH 7.4/7.4, Table 8, read-out: PAPP (B-A)
  Papp B→A at 2 h, 1 μM: 31.4 ×10⁻⁶ cm/s
[2]; Caco-2, with PYRO 3 μM, PYRO 3 μM, pH 7.4/7.4, Table 8
  Papp at 2 h, 1 μM: 12.3 ×10⁻⁶ cm/s
[2]; Caco-2, with PYRO 3 μM, PYRO 3 μM, pH 7.4/7.4, Table 8, read-out: PAPP (A-B)
  Papp A→B at 2 h, 1 μM: 3.85 ×10⁻⁶ cm/s
[2]; Caco-2, with PYRO 3 μM, PYRO 3 μM, pH 7.4/7.4, Table 8, read-out: PAPP (B-A)
  Papp B→A at 2 h, 1 μM: 39.1 ×10⁻⁶ cm/s
[2]; Caco-2, with PYRO 10 μM, PYRO 10 μM, pH 7.4/7.4, Table 8
  Papp at 2 h, 1 μM: 11.3 ×10⁻⁶ cm/s
[2]; Caco-2, with PYRO 10 μM, PYRO 10 μM, pH 7.4/7.4, Table 8, read-out: PAPP (A-B)
  Papp A→B at 2 h, 1 μM: 3.42 ×10⁻⁶ cm/s
[2]; Caco-2, with PYRO 10 μM, PYRO 10 μM, pH 7.4/7.4, Table 8, read-out: PAPP (B-A)
  Papp B→A at 2 h, 1 μM: 37.6 ×10⁻⁶ cm/s
[2]; Caco-2, with PYRO 30 μM, PYRO 30 μM, pH 7.4/7.4, Table 8
  Papp at 2 h, 1 μM: 16.4 ×10⁻⁶ cm/s
[2]; Caco-2, with PYRO 30 μM, PYRO 30 μM, pH 7.4/7.4, Table 8, read-out: PAPP (A-B)
  Papp A→B at 2 h, 1 μM: 7.29 ×10⁻⁶ cm/s
[2]; Caco-2, with PYRO 30 μM, PYRO 30 μM, pH 7.4/7.4, Table 8, read-out: PAPP (B-A)
  Papp B→A at 2 h, 1 μM: 36.9 ×10⁻⁶ cm/s
[2]; Caco-2, with PYRO 100 μM, PYRO 100 μM, pH 7.4/7.4, Table 8
  Papp at 2 h, 1 μM: 30 ×10⁻⁶ cm/s
[2]; Caco-2, with PYRO 100 μM, PYRO 100 μM, pH 7.4/7.4, Table 8, read-out: PAPP (A-B)
  Papp A→B at 2 h, 1 μM: 19.3 ×10⁻⁶ cm/s
[2]; Caco-2, with PYRO 100 μM, PYRO 100 μM, pH 7.4/7.4, Table 8, read-out: PAPP (B-A)
  Papp B→A at 2 h, 1 μM: 46.7 ×10⁻⁶ cm/s
[2]; Caco-2, with none (PYRO 0 μM), PYRO 0 μM, pH 7.4/7.4, Table 8
  Papp at 2 h, 1 μM: 7.8 ×10⁻⁶ cm/s
[2]; Caco-2, with none (PYRO 0 μM), PYRO 0 μM, pH 7.4/7.4, Table 8, read-out: PAPP (A-B)
  Papp A→B at 2 h, 1 μM: 2 ×10⁻⁶ cm/s
[2]; Caco-2, with none (PYRO 0 μM), PYRO 0 μM, pH 7.4/7.4, Table 8, read-out: PAPP (B-A)
  Papp B→A at 2 h, 1 μM: 30.6 ×10⁻⁶ cm/s
[2]; Caco-2, with none (no P-gp inhibitor), no P-gp inhibitor, pH 7.4/7.4, Table 7, read-out: PAPP apical to basolateral (A-B)
  Papp A→B at 2 h, 1 μM: 2.97 ×10⁻⁶ cm/s
[2]; Caco-2, with none (no P-gp inhibitor), no P-gp inhibitor, pH 7.4/7.4, Table 7, read-out: PAPP basolateral to apical (B-A)
  Papp B→A at 2 h, 1 μM: 54.2 ×10⁻⁶ cm/s
Caco-2 cells; PYRO 0 μM
  PAPP (A-B): 2.00 10E−6 CM/S
Caco-2 cells; PYRO 0.3 μM
  PAPP (B-A): 30.90 10E−6 CM/S
Caco-2 cells; PYRO 100 μM
  PAPP (A-B): 19.3 10E−6 CM/S
